Entries after “also recorded” stand apart in the source; their conditions may differ. Residues, ends and D or L forms follow the SMILES beside them. *: point of attachment. Cbz = O=C(OCc1ccccc1)*; CH2F = FC*
Assays:
[1] = test system: mitochondria isolated from SHEP cells; test: Mitochondrial membrane potential of isolated mitochondria (DiOC6(3)); type: biochemical, human; settings: FIG. 7, 12D; for effect of inhibitor on betulinic acid-induced Δψm loss in isolated mitochondria: 50 μM bongkrekic acid or 60 μM zVAD-fmk
Description: For isolation of mitochondria, cells (3×10^5 per sample) were washed twice with ice-cold PBS and resuspended with five volumes of buffer A (50 mM Tris, 1 mM EGTA, 5 mM 2-mercaproethanol, 0.2% BSA, 10 mM KH2PO4, pH 7.6, 0.4 M sucrose) and allowed to swell on ice for 20 min. Cells were homogenized with 30 strokes of a Teflon homogenizer and centrifuged at 10000 g for 10 min at 4° C. The resulting pellets were resuspended in buffer B (10 mM KH2PO4, pH 7.2, […] mannitol, 0.1% BSA). Mitochondria were separated by sucrose gradient (lower layer: 1.6 M sucrose, 10 mM KH2PO4, pH 7.5, 0.1% BSA; upper layer: 1.2 M sucrose, 10 mM KH2PO4, pH 7.5, 0.1% BSA). Interphases containing mitochondria were washed with buffer B at 18000 g for 10 min at 4° C. and the resulting mitochondrial pellets were resuspended in buffer B. For preparation of cytosolic extracts, cells (1×10^8 per sample) were washed twice with ice-cold PBS, resuspended with one volume of buffer A and allowed to swell on ice for 20 min. Cells were homogenized with 30 strokes of a Dounce homogenizer and centrifuged at 15000×g for 15 min ax 4° C. The protein concentration of mitochondria or cytosolic extracts was determined by Bradford method (Bio-Rad). For isolation of nuclei, cells were washed twice in ice-cold PBS, resuspended in 10 volumes of buffer C (10 mM PIPES, pH 7.4, 10 mM KCl, 2 mM MgCl2, 1 mM DDT, 1 mM PMSF, 10 μM cytochalasin B), allowed to swell on ice for 20 min and homogenized using a Teflon homogenizer. Homogenates were layered over 30% sucrose in buffer C and centrifuged at 800 g for 10 min. The resulting nuclear pellets were resuspended in buffer C and washed three times. Nuclei were scored at −80° C. in aliquots of 10^8 nuclei/ml until required. AIF-containing mitochondrial supernatant was prepared as described in Susin et aL, 1997, J. Exp. Med. 186, 5-37 and Susin et al., 1996, J. Exp. Med. 184, 1331-41.
Mitochondria (5×10^5/ml) were treated with 10 μg/ml betulinic acid for 30 min, incubated with 3,3′-dihexyloxacarbocyanide iodide (DiOC6(3), 40 nM, Molecular Probes, Inc., Eugene, Oreg.) for 15 min at 37° C. and analyzed on a flow cytometer (FACS Vantage, Becton Dickinson). As a control, cells were treated with the uncoupling agent carbonyl cyanide m-chlorophenylhydrazone (mCICCP, 200 μM, Sigma).

[2] = test system: caspase-3, caspase-8 and PARP in cytosolic extracts of SHEP cells; test: Cell-free system of apoptosis: cleavage of caspases in cytosolic extracts by mitochondria; type: biochemical, human; settings: for effect of inhibitor on caspase processing by supernatants from betulinic acid-treated mitochondria: 50 μM bongkrekic acid or 60 μM zVAD-fmk, FIG. 10A
Description: For determination of nuclear fragmentation, nuclei (10^3/μl) were incubated with mitochondria (1 μg/μl) in buffer D (10 mM HEPES, pH 7.4, 50 mM NaCl, 2 mM MgCl2, 5 mM EGTA, 1 mM DDT, 2 mM ATP, 10 mM phosphocreatine, 50 μg/ml creatine kinase, 10 μM cytochalasin B) for 2 h at 37° C. Nuclei were stained with propidium iodide ([…]) and analyzed by flow cytometry. For determination of caspase activation, cytosolic extracts (2 μg/μl) were incubated with mitochondria (1 μg/μl), cytochrome c (0.1-100 μM) or AIF-containing mitochondrial supernatant (0.5 μg/μl) in buffer D for 2 h at 37° C. Partially purified AIF (cytochrome c-free) was prepared as previously described (0.5 mg/ml, Susin et al., 1997, J. Exp. Med. 186, 5-37; Susin et al., 1996, J. Exp. Med. 184, 1331-41). Proteins were separated by 15% SDS-PAGE and Western blot analysis was performed as described above. To confirm equal loading of mitochondrial protein, all Western blots were also developed with an antibody directed against a 60 kDa mitochondrial antigen (data not shown).
SHEP cells transfected with bcl-2 or Bcl-XL or a neomycin resistance vector only were treated with 10 μg/ml betulinic acid for 16 h. Mitochondria were isolated and incubated with cytosolic extracts for 6 h in the presence or absence of 60 μM zVAD-fmk (left panel, cells). Alternatively, mitochondria isolated from untreated cells were incubated with 10 μg/ml betulinic acid or 5 mM atractyloside together with cytosolic extracts for 6 h in the presence or absence of 60 μMZ-VAD-fmk (right panel, mitos, Atra). Cytosolic extracts incubated with mitochondria isolated from untreated cells or with untreated mitochondria were used as control. 40 μg protein per lane isolated front cell lysates were separated by 15% SDS-PAGE. Immunodetection of caspases-3, -8 and PARP protein was performed by mouse anti-caspase-3 mAb, mouse anti-caspase-8 mAb, rabbit anti-PARP polyclonal antibody and ECL.
SHEP cells treated with 10 μg/ml betulinic acid for indicated times. Mitochondria were isolated and incubated with cytosolic extracts for 6 h. Western blot analysis was performed as described above.
Mitochondria isolated from SHEP cells transfected with bcl-2 or Bcl-XL or a neomycrn resistance vector only were treated with 10 μg/ml betulinic acid or 5 mM atractyloside for 0.5 h in the presence or absence of 50 μM bongkrekic acid or 60 μM zVAD-fmk. Mitochondrial supernatants obtained by high speed centrifugation were incubated with cytosolic extracts for 6 h at 37° C. Cytosolic extracts incubated with supernatants of untreated mitochondria were used as control. Western blot analysis was performed as described for FIG. 9A.
For determination of nuclear fragmentation, nuclei (10^3/μl) were incubated with mitochondria (1 μg/μl) in buffer D (10 mM HEPES, pH 7.4, 50 mM NaCl, 2 mM MgCl2, 5 mM EGTA, 1 mM DDT, 2 mM ATP, 10 mM phosphocreatine, 50 μg/ml creatine kinase, 10 μM cytochalasin B) for 2 h at 37° C. Nuclei were stained with propidium iodide ([…]) and analyzed by flow cytometry (Susin et al., 1997 Exp. Cell Res. 236:397-403). For determination of caspase activation, cytosolic extracts (2 μg/μl) were incubated with mitochondria (1 μg/μl), cytochrome c (10 μM) or AIF-containing mitochondrial supernatant (0.5 μg/μl) in buffer D for 2 h at 37° C. Proteins were separated by 15% SDS-PAGE and Western blot analysis was performed as described before.
SHEP cells transfected with Bcl-2 or Bcl-XL or a neomycin resistance vector only (Neo) were treated (Lanes+) with 0.5 μg/ml Doxo or 10 μg/ml Bet A for 16 h. Mitochondria were isolated and incubated with cytosolic extracts for 6 h. in the presence or absence of 60 μm Z-VAD.fmk. Western blot analysis was performed as described in FIG. 14A.

SMILES | effect of inhibitor on betulinic acid-induced Δψm loss in isolated mitochondria [1] | effect of inhibitor on caspase processing by supernatants from betulinic acid-treated mitochondria [2] | effect of inhibitor on cleavage of caspases by mitochondria from drug-treated cells ([2]; 60 μM zVAD-fmk, FIG. 9A, 15A) | Δψm of isolated mitochondria ([1]; mitochondria from wild type or vector-only SHEP cells, 10 μg/ml betulinic acid, 30 min) | caspase and PARP processing in cytosolic extracts by mitochondria from drug-treated cells ([2]; 10 μg/ml betulinic acid or 0.5 μg/ml doxorubicin 16 h, extracts 6 h, FIG. 9A, 15A)
CO[C@H](C/C=C\C=C\CC/C=C/C[C@H](C)/C=C/C(=C\C(=O)O)CC(=O)O)/C(C)=C\C=C(/C)C(=O)O [bongkrekic acid] | inhibited | inhibited |  |  | 
COC(=O)C[C@H](NC(=O)[C@H](C)NC(=O)[C@@H](NC(=O)OCc1ccccc1)C(C)C)C(=O)CF [zVAD-fmk, benzyloxycarbonyl-Val-Ala-Asp-Fluoromethylketone] (Cbz-Val-Ala-Asp(OMe)-CH2F) | did not interfere; also recorded: not blocked | inhibited | blocked |  | 
COc1cccc2c1C(=O)c1c(O)c3c(c(O)c1C2=O)C[C@@](O)(C(=O)CO)C[C@@H]3O[C@H]1C[C@H](N)[C@H](O)[C@H](C)O1 [doxorubicin] |  |  |  | did not induce mitochondrial perturbations | induced cleavage of caspases-3, -8 and PARP
